Reference: US11254716B2, “Peptides for binding epidermal growth factor” (3M INNOVATIVE PROPERTIES COMPANY, priority 2016, dated 2022)
pKd: −log10 of the molar value. Where no end group is shown, it is not given here.

Legend:
TNF-α = molecular target: T1, TNF-α (Homo sapiens, UniProt P01375); experiment: Surface plasmon resonance (SPR) binding assay (Test Method A), TNF-α; conditions: CK-linker modified peptide immobilized on CM5 chip, Biacore 3000, 25° C., TNF-α 62.5-1000 nM, 1-to-1 Langmuir fit; read-out: binding affinity (KD) for TNF-α
T1 construct: purchased Abcam plc, Cambridge, Mass

EGF [1] = molecular target: T2, EGF (Homo sapiens, UniProt P01133); experiment: biochemical; conditions: binding affinity (KD) for EGF, CK-linker modified peptide immobilized on CM5 chip, Biacore 3000, 25° C., EGF 62.5-1000 nM, 1-to-1 Langmuir fit
Protocol: “Test Method A” refers to the following general surface plasmon resonance (SPR) binding assay. Target protein (e.g., EGF and tumor necrosis factor alpha (TNFα)) is immobilized at 25° C. and diluted peptides are injected for 3 min at a flow rate of 10 μl/min at 25° C.
The immobilization was performed at 25° C. using HBS-EP as the running buffer. The CM-dextran surfaces of the sensor chip flow cells were activated by a seven minute injection (20 microliters/minute) of freshly prepared 1:1 50 mM NHS: 200 mM EDC. […] The coupling step was followed by a seven minute injection (20 microliters/minute) of ethanolamine hydrochloride-NaOH (1M, pH 8.5) which deactivated residual reactive sites.
The kinetic analysis for EGF was performed at 25° C. The EGF was diluted in HBS-EP buffer and centrifuged at 14,000 rpm for five minutes at 4° C. Individual test samples of EGF at various concentrations (62.5, 125, 250, 500 and 1000 nM) were injected for three minutes at a flow rate of 10 microliters/minute. The surface was regenerated by injection of 10 microliters of glycine-HCl in water (20 mM, pH 2.5).
The data analysis was carried out using the BIA Evaluation Software Kit obtained from GE Healthcare Bio-Sciences Corporation. The assay data fitted 1-to-1 Langmuir using global curve fitting analysis.

EGF [2] = molecular target: T2, EGF; experiment: Dot blotting analysis of biotinylated peptide with membrane-spotted EGF; type: binding; parameters: Recombinant Human Epidermal Growth Factor (EGF); purchased Abcam plc, Cambridge, Mass; conditions: EGF 10 nM spotted; biotinylated peptide 10 ng/mL; Streptavidin-HRP, TMB
Protocol: EGF (1 microliter of a 10 nM solution in PBS was spotted a nitrocellulose membrane (obtained from Thermo Fisher Scientific) and the membrane was dried in air for about 30 minutes. The membrane was then incubated in 15 mL of blocking buffer (3 wt. % BSA in PBS) for one hour at room temperature. The membrane was washed three times (15 minutes for each wash) with 15 mL portions of fresh PBST. The washed membrane was incubated with Biotinylated SEQ ID NO: 1 [10 mL of a 10 ng/mL solution in blocking buffer (3 wt. % BSA in PBS)] with gentle agitation for one hour. The membrane was again washed three times (15 minutes for each wash) with 15 mL portions of fresh PBST. The washed membrane was incubated with Streptavidin-HRP [1:5000 dilution in 10 mL of the blocking buffer (3 wt. % BSA in PBS)] for 30 minutes with gentle agitation. Following the incubation, the membrane was washed three times (15 minutes for each wash) with 15 mL portions of fresh PBST. The washed membrane was incubated with 10 mL of the development solution for horseradish peroxidase (TMB-Blotting Substrate Solution, Pierce-Fisher Scientific) with gentle agitation. The color development was stopped by adding water.

T2 sequence (P01133 971-1023 limits assumed): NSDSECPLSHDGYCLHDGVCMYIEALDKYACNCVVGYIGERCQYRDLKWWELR
T1 sequence (P01375 77-233 limits assumed): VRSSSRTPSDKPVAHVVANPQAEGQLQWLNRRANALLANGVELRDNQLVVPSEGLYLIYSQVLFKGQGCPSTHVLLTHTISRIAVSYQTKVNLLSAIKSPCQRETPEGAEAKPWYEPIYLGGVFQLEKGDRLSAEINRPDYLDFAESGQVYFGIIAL

Row | Substance | pKd (TNF-α) | pKd (EGF [1]) | dot blot colour development at EGF application site (affinity for EGF) (EGF [2])
1 | Ac-WFEWPYWEMNVPDVWN-NH2 [SEQ ID NO: 1, WFEWPYWEMNVPDVWN] | 4.12 | 7.10 | –
2 | Biotinylated SEQ ID NO: 1: Biotinylated version of peptide SEQ ID NO: 1 (WFEWPYWEMNVPDVWN; also: biotinylated, site not given here) | – | – | A dark spot developed
